Measured values taken from US4021553A, “5,6-Diaryl-1,2,4-triazines as topically-active anti-inflammatory agents” (Eli Lilly and Company, priority 1976, dated 1977).

System: erythemic response (ultraviolet-induced erythema)
Test: UV-induced erythemic response inhibition in guinea pigs, topical (modification of the method of Winder)
Assay type: in vivo, Albino guinea pigs
Conditions: dose 100 mcg./12 cm.^2, in ethanol, weighted scores 1.0-2.5 hours
Experimental: A modification of the method of Winder was used to measure the anti-inflammatory activities of the compounds employed in the method of the present invention; see C. V. Winder, et al., Arch. Int. Pharmacodyn., 116, 261 (1958). Albino guinea pigs of either sex, weighing 225-300 grams, were shaved on the back and chemically depilated (Nair® Lotion Hair Remover, Carter Products, N.Y., N.Y.) 18-20 hours before exposure to ultraviolet light. The animals, in groups of four and bearing identifying ear tags, were treated by applying to an area of skin of about 12 cm.^2 a solution of test compound dissolved in 0.1 cc. of ethanol. The control treatment consisted of administering only the drug vehicle, ethanol, to a group of four animals. Groups of four animals each were given different treatment levels of test compound to obtain dose responses. Random order and blind administration of the test compounds were employed; drug idenfication was not made until after all animals were graded. Immediately prior to drug application, the animals were exposed in groups of four to a high-intensity ultraviolet light for a measured period of time (usually 4-7 seconds). The ultraviolet light source, a Hanovia Lamp (Kroymayer-Model 10), was placed in contact with the skin of the animal's back. A gummed notebook paper reinforcement was affixed to the lamp lens to provide an unexposed area of contrast for grading the erythema. Beginning one hour after exposure and thereafter at half-hour intervals for another 1 1/2 hours, the degree of resulting erythema was graded by an arbiturary scoring system based upon the degree of contrast and redness formed. […]
Total scores from each treatment group of four guinea pigs were prepared to the control treatment, and the percent inhibition was calculated as follows: [formula]
A dose-response graph was obtained by plotting dose versus percent inhibition, the points representing the average of each treatment group of four guinea pigs. […] The plotted or calculated ED50 for the particular compound tested, where available, is given in the last column of Table I.

COc1ccc(-c2nnc(SCc3ccccc3)nc2-c2ccc(OC)cc2)cc1 [CH2 C6 H5 S 1 OCH3 OCH3, 3-benzylthio-5,6-bis(4-methoxyphenyl)-1,2,4-triazine]
% Inhibition compared with control (erythemic response): 49%

COc1ccc(-c2nnc(SC(C)C)nc2-c2ccc(OC)cc2)cc1 [CH(CH3)2 S 1 OCH3 OCH3, 3-isopropylthio-5,6-bis(4-methoxyphenyl)-1,2,4-triazine]
% Inhibition compared with control (erythemic response): 35%

COc1ccc(-c2ncnnc2-c2ccc(OC)cc2)cc1 [H -- -- OCH3 OCH3, 5,6-bis(4-methoxyphenyl)-1,2,4-triazine]
% Inhibition compared with control (erythemic response): 53%
